“Also recorded” adds a separate entry of the source.

For assay [1], the system named is black carrot (Deep Purple) roots. As to the kind of experiment: Field trial, foliar spray on black carrot, large plots with successive harvests 7 to 35 weeks after planting. In kind it is in vivo, Daucus carota ssp. sativus var. atrorubens Alef. As to the method: (§1) The experiment consisted on a factorial combination of […] (Deep Purple F1) and three sowing dates: 19 May 2014, and 18 and 25 May 2015, in field trials in Taastrup, Denmark, at the experimental station in Højbakkegård (latitude 55, longitude […]). Seeds were provided by Chr. Hansen A/S. Plants were cultivated on loamy soil. Air temperatures during the growing period were slightly different in both years of cultivation (mean values of 2 years: 15.4 and 14.6° C., May-October). Rainfall was complemented by irrigation throughout carrot growth to avoid water stress. The routine techniques of cultivation and plant protection, recommended for carrot crop production were applied.
(§2) Plots were arranged in a randomized block design with three replications. In the three sowing dates, each plot consisted of three 4.5 m-long rows. Additionally, plots of three 12 m-long rows were arranged in 18 May 2015. 2-Chloroethylphosphonic acid solution (CERONE® brand ETHEPHON, 39.9% Bayer CropScience, Leverkusen, Germany) was applied as a foliar spray avoiding the rainy days, at rates of 0, 120 and 360 g·ha^−1 a.i. in 2014; 0, 360, and 720 g·ha^−1 a.i. in 2015 for small plots; and 0 and 360 g·ha^−1 a.i. for large plots. Applications were made using a CO2 backpack spaced 50 cm apart, beginning 6 weeks after planting and continuing every 3 weeks, for a total of 6 applications.
Large plots (12 m-long rows) were harvested several times from separate row segments, during the growing period from 30 Jun. 2015 to 19 Jan. 2016 (7, 10, 13, 16, 19, 22, 25, 26, 29 and 35 weeks after planting). Carrot production was estimated in large plots 21 weeks after planting: two meters per row was dug from each plot, and the carrots were washed and weighed. Measured weights were extrapolated to tons per hectare. […]
Soluble solids were calculated with a digital refractometer with automatic temperature compensation and operating range from 0 to 53° Brix. […]
Dry matter was determined by the mass difference between the fresh sample and the dry sample. […] The results were expressed as percentage of dry matter. […]
TMC was measured spectrophotometrically based on the pH differential method, with slight modifications. The carrot extract was diluted by adding 20 volumes of 0.2 M KCl-HCl pH 1, and TMC was measured at […] and 700 nm (to correct for sediment) using a UV-Vis spectrophotometer (Evolution™ 220, Thermo Fischer Scientific, Waltham, MA, USA). The TMC was expressed as cyaniding-3-glucoside equivalents (ppm). […]

The subject of assay [2] is black carrot (Deep Purple F1) roots. Nature of the assay: Field trial, foliar spray on black carrot, small plots harvested 21 weeks after sowing. Type of assay: in vivo, Daucus carota ssp. sativus var. atrorubens Alef. The following applies: for increase of mean anthocyanin concentration of treated plants compared with respective controls: 21 weeks after sowing, foliar spray, 6 applications; for accumulation of anthocyanin in roots: field-applied, measured twenty-one weeks after sowing (FIG. 1, FIG. 2). As to the method:
as §1, §2
Small plots (4.5 m-long rows) were harvested 21 weeks after sowing. The roots were manually harvested from the middle part of each row.
In all analyses, 20 whole carrot roots per plot were washed and split lengthwise: 20 halves were ground in liquid nitrogen, and the generated powder was stored at −80° C. for further gene expression analyses; the complementary 20 halves were coarsely ground in a commercial blender, and 50 g of the resulting purée were immediately homogenized in 50 g of a 3% sulfuric acid solution (v/v), by using a Waring two-speed commercial blender (VWR—Bie & Berntsen, Herlev, Denmark). The resulting fine purée (4 g) was subsequently mixed with demineralized water (8 g) and vortexed. After incubation for 1 h at room temperature, the sample was centrifuged 20 min at 4500 rpm, and the supernatant (extract) was utilized for further analyses.
Soluble solids were calculated with a digital refractometer with automatic temperature compensation and operating range from 0 to 53° Brix. For its calculation, the carrot extract obtained was filtered through 0.45 μm membrane filters, and Brix measurements were performed using 1 mL of the filtrate. For each measurement, two technical replicates were made and their average was reported.
Dry matter was determined by the mass difference between the fresh sample and the dry sample. The sample was dried 24 h until it reached a constant weight using an oven at 90° C. The results were expressed as percentage of dry matter. For each measurement, two technical replicates were made and their average was reported.
TMC was measured spectrophotometrically based on the pH differential method, with slight modifications. The carrot extract was diluted by adding 20 volumes of 0.2 M KCl-HCl pH 1, and TMC was measured at […] and 700 nm (to correct for sediment) using a UV-Vis spectrophotometer (Evolution™ 220, Thermo Fischer Scientific, Waltham, MA, USA). The TMC was expressed as cyaniding-3-glucoside equivalents (ppm).
All analyses were performed with three technical and three biological replicates. Data were subjected to statistical analysis using SPSS software (version 22, SPSS Inc., Chicago, IL, USA). Treatments were compared using one-way analysis of variance (ANOVA) followed by a Tukey post hoc test. p<0.05 was considered significant.

Setting [3] is: treated plants versus controls (FIG. 1).

Turning to `O=P(O)(O)CCCl` [2-Chloroethylphosphonic acid], the “TMC after the last application” value in assay [1] (7 weeks after the application of the last treatment (22 to 27 weeks after planting) (FIG. 3A)) is on record as “continued to increase”. In assay [1] (at each harvest time (FIG. 4)), the “root length, treated versus untreated carrots” value was “differed insignificantly”. Also, the “root weight, treated versus untreated carrots” value in assay [1] (at each harvest time (FIG. 4)) is given as “differed insignificantly”. Moreover, the “mean anthocyanin concentration (TMC) of treated roots versus untreated” value in assay [1] (at every harvest point, 7 to 35 weeks after planting, 360 g ha^-1 a.i.) is “higher”. Further, in assay [2] (120, 360 and 720 g ha^-1 a.i. treatments compared, either growing season), the “effect of total amount applied on the accumulation of anthocyanin” value is reported as “no differences were found; also recorded: nonsignificant effect”. Moreover, the figures for the “increase of mean anthocyanin concentration of treated plants compared with respective controls” value in assay [2] (Harvest 1 (first of three repetitions of two growing seasons)), in assay [2] (Harvest 2 (second of three repetitions)) and in assay [2] (Harvest 3 (third of three repetitions)) were 49%, 38% and 65%, respectively. Besides, the root weight result in assay [2] (either growing season (FIG. 1)) is given as “did not affect”. For the same compound, the “accumulation of anthocyanin in roots” value in assay [2] was “induced the accumulation of anthocyanin”; in assay [2] (listed as ethylene-releasing compound), “increased amounts of anthocyanin; also recorded: induced the accumulation of anthocyanin”. For the same compound, the “increase of mean anthocyanin concentration in the roots of treated plants compared with respective controls (summary)” value in assay [2] (pre-harvest foliar spraying on black carrot leaves, over all repetitions) is listed as “more than 35%”. In addition, the “dry weight (DW)” value in assay [2] (setting [3]) was “lowest values”. For the same compound, in assay [2] (setting [3]), the “soluble sugar content (SSC)” value was “lowest values”. The “root colour in cross and longitudinal sections” value in assay [2] (treated roots versus untreated roots with white core (FIG. 2)) was “solid purple colour”.

The record behind these values is patent US12501919B2, “Method for increasing anthocyanin content in carrots” (UNIVERSITY OF COPENHAGEN, priority 2016, dated 2025).
